Results from paper PMC8699473, “An Easily Expandable Multi-Drug LC-MS Assay for the Simultaneous Quantification of 57 Oral Antitumor Drugs in Human Plasma” (Cancers, 2021).

Assay: Long-term stability in spiked pooled human plasma

Row | SMILES | Long-term stability, 1 month, -20°C Accuracy [%] (validation standard 2xLLOV) | Long-term stability, 1 month, -80°C Accuracy [%] (validation standard 2xLLOV) | Long-term stability, 2 month, -20°C Accuracy [%] (validation standard 2xLLOV) | Long-term stability, 2 month, -80°C Accuracy [%] (validation standard 2xLLOV) | Long-term stability, 3 month, -20°C Accuracy [%] (validation standard 2xLLOV) | Long-term stability, 3 month, -80°C Accuracy [%] (validation standard 2xLLOV) | Long-term stability, 6 weeks, 4°C, without daylight Accuracy [%] (validation standard 2xLLOV) | Long-term stability, 1 month, -20°C Accuracy [%] (validation standard LLOV) | Long-term stability, 1 month, -80°C Accuracy [%] (validation standard LLOV) | Long-term stability, 2 month, -20°C Accuracy [%] (validation standard LLOV) | Long-term stability, 2 month, -80°C Accuracy [%] (validation standard LLOV) | Long-term stability, 3 month, -20°C Accuracy [%] (validation standard LLOV) | Long-term stability, 3 month, -80°C Accuracy [%] (validation standard LLOV) | Long-term stability, 6 weeks, 4°C, without daylight Accuracy [%] (validation standard LLOV) | Long-term stability, 1 month, -20°C Accuracy [%] (validation standard MOV) | Long-term stability, 1 month, -80°C Accuracy [%] (validation standard MOV) | Long-term stability, 2 month, -20°C Accuracy [%] (validation standard MOV) | Long-term stability, 2 month, -80°C Accuracy [%] (validation standard MOV) | Long-term stability, 3 month, -20°C Accuracy [%] (validation standard MOV) | Long-term stability, 3 month, -80°C Accuracy [%] (validation standard MOV) | other results
1 | COc1cc2c(Nc3ccc(Br)cc3F)ncnc2cc1OCC1CCN(C)CC1 [Vandetanib] | 99.7 | 97.7 | 105.9 | 106.4 | 101.7 | 101.7 | 92.2 | 95.3 | 88.9 | 97.5 | 97.6 | 87.6 | 83.6 | 85.4 | 98.6 | 95.9 | 105.7 | 105.2 | 105.3 | 104.4 | Long-term stability, 6 weeks, 4°C, without daylight Accuracy [%] (validation standard MOV): 100.6%; Long-term stability, 1 month, -20°C Accuracy [%] (validation standard ULOV): 93.1%; Long-term stability, 1 month, -80°C Accuracy [%] (validation standard ULOV): 88.0%; Long-term stability, 2 month, -20°C Accuracy [%] (validation standard ULOV): 98.6%; Long-term stability, 2 month, -80°C Accuracy [%] (validation standard ULOV): 98.6%; Long-term stability, 3 month, -20°C Accuracy [%] (validation standard ULOV): 97.4%; Long-term stability, 3 month, -80°C Accuracy [%] (validation standard ULOV): 98.8%; Long-term stability, 6 weeks, 4°C, without daylight Accuracy [%] (validation standard ULOV): 93.5%
2 | COC(=O)N[C@@H](C)CNc1nccc(-c2cn(C(C)C)nc2-c2cc(Cl)cc(NS(C)(=O)=O)c2F)n1 [Encorafenib] | 100.7 | 93.5 | 111.7 | 104.1 | 97.4 | 95.2 | 95.2 | 84.2 | 88.1 | 103.4 | 93.1 | 96.1 | 94.9 | 81.0 | 99.0 | 97.1 | 102.3 | 104.9 | 101.8 | 100.8 | Long-term stability, 6 weeks, 4°C, without daylight Accuracy [%] (validation standard MOV): 109.2%; Long-term stability, 1 month, -20°C Accuracy [%] (validation standard ULOV): 99.1%; Long-term stability, 1 month, -80°C Accuracy [%] (validation standard ULOV): 95.7%; Long-term stability, 2 month, -20°C Accuracy [%] (validation standard ULOV): 104.0%; Long-term stability, 2 month, -80°C Accuracy [%] (validation standard ULOV): 101.8%; Long-term stability, 3 month, -20°C Accuracy [%] (validation standard ULOV): 100.7%; Long-term stability, 3 month, -80°C Accuracy [%] (validation standard ULOV): 99.0%; Long-term stability, 6 weeks, 4°C, without daylight Accuracy [%] (validation standard ULOV): 101.7%
3 | CC(C)(C)c1nc(-c2cccc(NS(=O)(=O)c3c(F)cccc3F)c2F)c(-c2ccnc(N)n2)s1 [Dabrafenib] | 101.2 | 93.1 | 98.6 | 101.3 | 96.6 | 101.7 | 107.2 | 101.0 | 96.1 | 99.0 | 97.9 | 97.1 | 96.6 | 102.4 | 96.1 | 92.3 | 97.8 | 98.9 | 100.3 | 98.0 | Long-term stability, 6 weeks, 4°C, without daylight Accuracy [%] (validation standard MOV): 107.2%; Long-term stability, 1 month, -20°C Accuracy [%] (validation standard ULOV): 97.0%; Long-term stability, 1 month, -80°C Accuracy [%] (validation standard ULOV): 92.2%; Long-term stability, 2 month, -20°C Accuracy [%] (validation standard ULOV): 97.4%; Long-term stability, 2 month, -80°C Accuracy [%] (validation standard ULOV): 98.0%; Long-term stability, 3 month, -20°C Accuracy [%] (validation standard ULOV): 96.3%; Long-term stability, 3 month, -80°C Accuracy [%] (validation standard ULOV): 98.6%; Long-term stability, 6 weeks, 4°C, without daylight Accuracy [%] (validation standard ULOV): 100.6%
